In patent publication US8999655B2, “Increase of myeloid microvesicles in the cerebrospinal fluid as biomarker of microglia/macrophage activation in neurological disorders” (Consiglio Nazionale delle Ricerche, priority 2010, dated 2015):

Assays:
[1] = test system: Cultured hippocampal neurons; test: Quantification of neuronal damage (PI uptake, annexin-V staining) after Aβ-treated MVs; format: cell-based; conditions: 20 μM CNQX and 100 μM APV applied together during 1 h exposure to Aβ-treated MVs, read 24 h later
Description: (§1) FIG. 12. Cultured hippocampal neurons were loaded with the ratiometric calcium dye FURA-2 for 1 h. During FURA-2 loading, neurons were exposed to microglia-derived microvesicles pre-incubated overnight in neuronal medium in the presence or in the absence of Abeta 1-42 (5 μM). Neurons were then wash in Kreb's ringer and resting calcium levels and calcium responsiveness to glutamate agonists (AMPA 100 μM, NMDA 100 μM) were evaluated using a single cell calcium imaging system. […] PI uptake and fragmentation of neuronal cytoskeleton (C) and staining for annexin-V, quantified in F, indicate that Aβ-treated MVs strongly affect neuronal viability. […] I Quantitative analysis of mean amplitude of calcium responses evoked by AMPA or NMDA in control neurons and neurons exposed to Aβ-treated AD MVs.
Living neurons were exposed annexin-V-FITC, fixed with 4% paraphormaldeyde and counterstained with antibodies direct against the neuronal marker SNAP-25. Apoptotic processes, labelled by annexin-V, were quantified by the Image J software and normalized to SNAP-25 immunoreactivity, as an index of neurite density. […] PI positive nuclei were quantified and normalized to total Hoescht positive nuclei. α-tubulin staining was carried out to evaluate integrity of neuronal cytoskeleton. At least 10 different fields from three independent experiments have been analyzed.

[2] = test system: Cultured hippocampal neurons; test: Calcium imaging (FURA-2) of basal cytosolic calcium in neurons exposed to Aβ-treated MVs; format: cell-based; conditions: APV and CNQX applied together; FIG. 12G
Description: as §1
Polychrome V (TILL Photonics, Grafelfing, Germany) was used as a light source. Fura-2 fluorescence images were collected with a PCO Super VGA SensiCam (Axon Instruments, Forest City, Calif., USA) and analyzed with TILL vision software. […] The ratio values in discrete areas of interest were calculated from sequences of images to obtain temporal analyses. Calcium concentrations were expressed as F340/380 fluorescence ratios.

Primary mouse microglia = test: Release of AnnexinV+ shed vesicles from ATP-stimulated microglia, measured by FACS; format: cell-based; conditions: FIG. 13
Description: FIG. 13. FTY720 treatment. Primary mouse microglia was pre-treated, or not, with FTY720, also named fingolimod or Gylenia, currently in course of registration for the treatment of multiple sclerosis, for 30 min., then ATP was added for further 30 min. to induce the release of AnnexinV^+ shed vesicles, as measured by FACS.
Dendrites of neurons exposed to Aβ1-42-treated-MVs have a frequently fragmented or beaded appearance (FIG. 12D), display abnormal cytoplasmic calcium concentration (FIG. 12A) and reduced responsiveness to glutamate agonists (FIG. 12B). […] Similar detrimental effects are induced in cultured neurons by MVs isolated from AD CSF, pre-incubated with Aβ1-42 (FIG. 12H-I). Finally, primary mouse microglia was pre-treated, or not, with FTY720, also named fingolimod or Gylenia (FIG. 13), currently in course of registration for the treatment of multiple sclerosis, for […], then ATP was added for 30 min. to induce the release of AnnexinV^+ shed vesicles, as measured by FACS. […] Therefore, the number of shed vesicles in the CSF of treated patients represents a biomarker of therapeutic efficacy of MS or other neurological disorders therapeutic treatment.

[3] = molecular target: T1, acid sphingomyelinase (A-SMase) (Homo sapiens, UniProt P17405); conditions: recently identified; mechanism similar to tricyclic antidepressants; cited from earlier work
T1 sequence (P17405 47-631): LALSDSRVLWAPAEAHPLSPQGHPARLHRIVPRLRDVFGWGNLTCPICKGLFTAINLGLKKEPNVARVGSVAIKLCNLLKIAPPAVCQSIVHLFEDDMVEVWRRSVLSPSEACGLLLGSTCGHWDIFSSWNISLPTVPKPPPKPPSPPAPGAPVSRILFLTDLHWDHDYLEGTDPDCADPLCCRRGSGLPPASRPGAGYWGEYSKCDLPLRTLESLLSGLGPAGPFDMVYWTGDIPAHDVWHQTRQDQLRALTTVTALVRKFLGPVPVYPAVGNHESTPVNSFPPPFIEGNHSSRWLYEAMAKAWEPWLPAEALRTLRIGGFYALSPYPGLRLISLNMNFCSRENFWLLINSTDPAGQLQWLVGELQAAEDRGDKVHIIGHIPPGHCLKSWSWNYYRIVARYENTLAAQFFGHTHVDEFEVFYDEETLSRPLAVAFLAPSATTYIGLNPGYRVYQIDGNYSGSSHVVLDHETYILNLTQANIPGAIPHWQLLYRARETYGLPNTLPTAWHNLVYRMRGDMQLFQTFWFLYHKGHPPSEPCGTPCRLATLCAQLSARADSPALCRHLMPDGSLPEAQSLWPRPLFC

isolectin IB-4 [4] = test: Specificity of IB4-FITC labelling of primary microglia (fluorescence microscopy); format: binding, Baindeiraea Simplicifolia; conditions: IB4-FITC pretreated with 1M melibiose, FIG. 5A
Excerpt: (§2) FIG. 5. IB-4 labeling of microglia/macrophage-derived MVs is specific. A. Differential interference contrast microscopy (right panels) and fluorescent images (left panels) of primary microglia labelled in vivo with IB4-FITC.
(§3) CSF collected from naïve mice or mice exposed to different inflammatory treatments was directly stained with FITC-conjugate Isolectin B4 from Baindeiraea Simplicifolia, (IB4-FITC, SIGMA), and the phosphatydil serine ligand annexin-V in 1% BSA. Specificity of IB4 labelling was evaluated by treating IB4-FITC with 1 M melibiose (6-O-a-D-galactopyranosyl-D-glucose, Sigma M5500) for 30 min before addition to Shed MVs (FIG. 9) as previously described (Ayoub A E et al.). CSF was then diluted in PBS buffer and labelled MVs were acquired within a fixed time interval on a Canto II HTS flow cytometer (Becton Dickinson). Data were analysed using FCS 3 software (Becton Dickinson, Franklin Lakes, N.J., USA). A gate was established on size using beads of 0.5-2 μm. Whithin this gate IB4/annexin-V double positive events (number of events/μl) were evaluated as a parameter of MVs concentration in the CSF. […] IB4 and annexin-V double positive events were evaluated as a parameter of shed MVs concentration while IB4 and CD63 double positive events was evaluated as a parameter of exosome concentration. […]

isolectin IB-4 [5] = test: Specificity of IB4-FITC labelling of MVs shed from N9 microglia (flow cytometry); format: binding, Baindeiraea Simplicifolia; conditions: melibiose pretreatment, FACS, FIG. 5B
Excerpt: as §2, §3

N[C@@H](CCCP(=O)(O)O)C(=O)O [APV]
neuronal damage caused by Aβ-treated MVs (PI uptake, annexin-V staining) [1]: strongly prevented | increase in cytoplasmic calcium level induced by Aβ-treated MVs [2]: almost completely inhibited

N#Cc1cc2[nH]c(=O)c(=O)[nH]c2cc1[N+](=O)[O-] [CNQX]
neuronal damage caused by Aβ-treated MVs (PI uptake, annexin-V staining) [1]: strongly prevented | increase in cytoplasmic calcium level induced by Aβ-treated MVs [2]: almost completely inhibited

CCCCCCCCc1ccc(CCC(N)(CO)CO)cc1 [FTY720]
MP shedding (Primary mouse microglia): potently inhibits MP shedding | release of AnnexinV+ shed vesicles (Primary mouse microglia; FTY720 pre-treatment 30 min, then ATP for further 30 min): completely prevented the release of shed vesicles above background levels | release of AnnexinV+ shed vesicles (Primary mouse microglia; FTY720 pre-treatment 18 h, then ATP 30 min): completely prevented the release of shed vesicles above background levels | inhibition of A-SMase [3]: inhibitor of A-SMase

OC[C@H]1O[C@H](OC[C@H]2OC(O)[C@H](O)[C@@H](O)[C@@H]2O)[C@H](O)[C@@H](O)[C@H]1O (stereo partly drawn) [melibiose, 6-O-a-D-galactopyranosyl-D-glucose]
IB4-FITC binding to the cell surface (isolectin IB-4 [4]): completely prevents its binding to the cell surface | IB4-FITC labeling of intact MVs (isolectin IB-4 [5]): completely abolished IB4-FITC labeling
